Experimental data: article PMC11633360 (ChemistryOpen, 2024)
Converted amounts (≈) assume the structure as drawn. “And” between values parts separate entries of the source, which are not always exact repeats. Equal values may be shown once.

Experiments:
[1] = DPPH radical scavenging activity; conditions: DPPH 300 μM in methanol, 30 minutes, 25 °C
Description: The capacity of the chemical compounds to decolourize the purple colour of DPPH solution was investigated following a modified procedure of Turkoglu et al..[48] […] The solution was mixed gently before equilibration in a dark compartment for 30 minutes at 25 °C. […] The DPPH radical scavenging ability of each compound was estimated using the expression below: %DPPHscavenging=1-TestsampleAbs/BlankAbs×100

Mtb H37Rv = test: microbe, parasite or virus in culture; type: cell-based, Mycobacterium tuberculosis; conditions: for MIC90: Mycobacterium tuberculosis, H37RV, read-out: GFP Assay – 10pt DR: MIC90
[2] = Nitric oxide (NO) scavenging activity; conditions: sodium nitroprusside, pH 7.4, 2 hr, 37 °C, Griess reagent
Description: The NO radical mop‐up ability of the compounds was evaluated using Kurian et al.[49] previous protocol. […] After 2 hr equilibration at 37 °C, 0.250 mL of Griess reagent was added, and the absorbance of the coloured solution produced was measured at 545 nm against a blank solution lacking the test samples. Subsequently, the % NO scavenging antioxidant capacity of the compounds was expressed as: %Nitricoxidescavenging=1-TestsampleAbs/BlankAbs×100

Row | Structure (SMILES) | IC50 [1] | GFP Assay – 10pt DR: MIC90 (Mtb H37Rv) | MIC90 (Mtb H37Rv) | IC50 [2] | melting point
1 | Nc1ncnc2c1c(N1CCN(CCO)CC1)nn2-c1ccnc2cc(Cl)ccc12 [10 g, 2‐(4‐(4‐Amino‐1‐(7‐Chloroquinolin‐4‐yl)‐1H‐Pyrazolo[3,4–d]pyrimidin‐3‐yl)piperazin‐1‐yl)ethanol] | 2960 µM | >125 µM | 62.5 µM (≈ 26.6 µg/mL) | 280 µM | 
2 | FC(F)(F)Oc1ccc(Nc2ccnc3cc(Cl)ccc23)cc1 [12 g, 7‐Chloro‐N‐(4‐(trifluoromethoxy)phenyl)quinolin‐4‐Amine] | > 4000 µM |  |  | > 4000 µM | > 250 °C
3 | O=[N+]([O-])c1ccc(Nc2ccnc3cc(Cl)ccc23)cc1 [12 h, 7‐Chloro‐N‐(4‐Nitrophenyl)quinolin‐4‐Amine] | 80 µM | 62.5 µM | > 125 µM | 650 µM | 
4 | O=C1O[C@H]([C@@H](O)CO)C(O)=C1O [Ascorbic acid, reference compound] | 50 µM |  |  | > 4000 µM | 
5 | Nc1ncnc2[nH]ncc12 [Compound 4, 1H‐Pyrazolo[3,4–d]pyrimidin‐4‐Amine] | > 4000 µM |  |  | 780 µM | 
6 | Nc1ncnc2[nH]nc(N3CCCCC3)c12 [Compound 8a, 3‐(piperidin‐1‐yl)‐1H‐Pyrazolo[3,4–d]pyrimidin‐4‐Amine] | 3400 µM | 125 µM | > 125 µM | 800 µM | 
7 | CC1CCN(c2n[nH]c3ncnc(N)c23)CC1 [Compound 8b, 3‐(4‐methylpiperidin‐1‐yl)‐1H‐pyrazolo[3,4–d]pyrimidin‐4‐amine] | > 4000 µM |  |  | 1010 µM | 
8 | Nc1ncnc2[nH]nc(N3CCOCC3)c12 [Compound 8c, 3‐Morpholino‐1H‐Pyrazolo[3,4–d]pyrimidin‐4‐Amine] | > 4000 µM |  |  | 880 µM | 
9 | CN1CCN(c2n[nH]c3ncnc(N)c23)CC1 [Compound 8d, 3‐(4‐Methylpiperazin‐1‐yl)‐1H‐Pyrazolo[3,4–d]pyrimidin‐4‐Amine] | 580 µM | 62.5 µM | > 125 µM | 800 µM | 
10 | CCN1CCN(c2n[nH]c3ncnc(N)c23)CC1 [Compound 8e, 3‐(4‐Ethylpiperazin‐1‐yl)‐1H‐Pyrazolo[3,4–d]pyrimidin‐4‐Amine] | 930 µM | 62.5 µM | > 125 µM | 980 µM | 
11 | Nc1ncnc2[nH]nc(N3CCN(CCO)CC3)c12 [Compound 8f] | 3540 µM |  | > 125 µM | 600 µM | 
12 | Clc1ccc2c(Cl)ccnc2c1 [Compound 9, 4,7‐dichloroquinoline] | > 4000 µM |  | > 125 µM | 820 µM | 
13 | Nc1ncnc2c1cnn2-c1ccnc2cc(Cl)ccc12 [Compound 10a, 1‐(7‐Chloroquinolin‐4‐yl)‐1H‐Pyrazolo[3,4–d]pyrimidin‐4‐Amine] | > 4000 µM |  | > 125 µM | 2590 µM | 
14 | Nc1ncnc2c1c(N1CCCCC1)nn2-c1ccnc2cc(Cl)ccc12 [Compound 10b, 1‐(7‐Chloroquinolin‐4‐yl)‐3‐(piperidin‐1‐yl)‐1H‐Pyrazolo[3,4–d]pyrimidin‐4‐Amine] | > 4000 µM |  | > 125 µM | > 4000 µM | 
15 | CC1CCN(c2nn(-c3ccnc4cc(Cl)ccc34)c3ncnc(N)c23)CC1 [Compound 10c, 1‐(7‐chloroquinolin‐4‐yl)‐3‐(4‐methylpiperidin‐1‐yl)‐1H‐pyrazolo[3,4–d]pyrimidin‐4‐amine] | 2100 µM | >125 µM and 125 µM | 62.5 µM (≈ 24.6 µg/mL) | 2780 µM | 
16 | Nc1ncnc2c1c(N1CCOCC1)nn2-c1ccnc2cc(Cl)ccc12 [Compound 10d, 1‐(7‐Chloroquinolin‐4‐yl)‐3‐Morpholino‐1H‐Pyrazolo[3,4–d]pyrimidin‐4‐Amine] | > 4000 µM |  | > 125 µM | 2460 µM | 
17 | CN1CCN(c2nn(-c3ccnc4cc(Cl)ccc34)c3ncnc(N)c23)CC1 [Compound 10e, 1‐(7‐Chloroquinolin‐4‐yl)‐3‐(4‐Methylpiperazin‐1‐yl)‐1H‐Pyrazolo[3,4–d]pyrimidin‐4‐Amine] | > 4000 µM |  |  | > 4000 µM | 
18 | CCN1CCN(c2nn(-c3ccnc4cc(Cl)ccc34)c3ncnc(N)c23)CC1 [Compound 10f, 1‐(7‐Chloroquinolin‐4‐yl)‐3‐(4‐Ethylpiperazin‐1‐yl)‐1H‐Pyrazolo[3,4–d]pyrimidin‐4‐Amine] | > 4000 µM | >125 µM and 125 µM | 62.5 µM (≈ 25.6 µg/mL) | 800 µM | 
19 | Clc1ccc2c(Nc3ccccc3)ccnc2c1 [Compound 12a, 7‐Chloro‐N‐Phenylquinolin‐4‐Amine] | > 4000 µM | 62.5 µM and >125 µM | 125 µM (≈ 31.8 µg/mL) | 500 µM | > 250 °C
20 | Fc1ccc(Nc2ccnc3cc(Cl)ccc23)cc1 [Compound 12b, 7‐Chloro‐N‐(4‐Fluorophenyl)quinolin‐4‐Amine] | > 4000 µM |  |  | 1920 µM | 
21 | Clc1ccc(Nc2ccnc3cc(Cl)ccc23)cc1 [Compound 12c, 7‐Chloro‐N‐(4‐Chlorophenyl)quinolin‐4‐Amine] | > 4000 µM |  | > 125 µM | > 4000 µM | > 250 °C
22 | Clc1ccc2c(Nc3ccc(Br)cc3)ccnc2c1 [Compound 12d, N‐(4‐Bromophenyl)‐7‐Chloroquinolin‐4‐Amine] | > 4000 µM |  | > 125 µM | > 4000 µM | > 250 °C
23 | Cc1ccc(Nc2ccnc3cc(Cl)ccc23)cc1 [Compound 12e, 7‐Chloro‐N‐(p–tolyl)quinolin‐4‐Amine] | > 4000 µM |  |  | > 4000 µM | > 250 °C
24 | COc1ccc(Nc2ccnc3cc(Cl)ccc23)cc1 [Compound 12f, 7‐Chloro‐N‐(4‐Methoxyphenyl)quinolin‐4‐Amine] | > 4000 µM | >125 µM | 62.5 µM (≈ 17.8 µg/mL) | 880 µM | 
